The record followed here is US20250052744A1, “Dyes and Uses Thereof” (The University of Liverpool, priority 2021, published 2025).

What all share (type): cell-based
In one test the test system is E. Coli SEC 31. The test is described as follows: Fluorescent signal intensity of stained bacteria (microscope, ImageJ). How it is done: (§1) Firstly, all different bacterial strains were grown overnight in LB at 37° C. and 200 rpm. The mid-exponential phase cultures of bacterial strains were then diluted to a concentration of 10^5 cells·mL^−1 in LB. SYBR Green I, SYTO 13/9 and DiSC3(5) dyes were prepared by diluting them from their stocks.
(§2) The three dyes (SYBR Green I, SYTO 13/9 and DiSC3(5)) were then added in the final concentrations of 3 μM—DiSC3(5), 3 μM—SYTO 13/9 and 10× (diluted from the stock 10,000×)—SYBR Green I to the different bacterial strains and the strains incubated […] at 37° C. for 10 minutes in the dark.
(§3) The bacterial strains were then put on a haemocytometer and visualised under a microscope with fluorescent filters corresponding to individual dyes. Images were taken for all the bacterial strains at the same intensity of the incident laser light and 10-15 images were taken for each of the bacterial strains.
(§4) The images were then analysed on ImageJ software by first converting the coloured images to monochromatic images, then selecting an area with cells and analysing the plot profile. The intensity of the peaks and background from the image was then recorded.
(§5) A similar protocol to Example 1 was followed, with the addition of […] of FM 4-64.

In another test the test system is P. Aeruginosa NCTC 10332. Described as above. The procedure: as §1, §2, §3, §4, §5
In another test the test system is P. Mirabilis NCTC 11938. The test is described as above. How it is done: as §1, §2, §3, §4, §5
The next test deals with S. Aureus NCTC 8532. Described as above. How it is done:
as §1, §2, §3, §4, §5

Test [1] deals with Enterococcus faecium NCTCT 7171. The test is described as above. The procedure:
as §1, §2, §3, §4, §5

Test [2] relates to Klebsiella pneumoniae NCTC 9633. The description is as above. The procedure: as §1, §2, §3, §4, §5
A further test has as its system Proteus mirabilis. Put plainly: Qualitative dye staining on agarose pads (EVOS M7000). The arrangement: key to Relative fluorescent intensity: Very high: If the cells looked twice as big in the fluorescent channel, it was marked as having “very high” relative fluorescent intensity; High: if the cells looked bigger in the fluorescent channel, it was marked as having “high” relative fluorescent intensity; Medium: If the cells looked almost the same size in the fluorescent channel and the bright field, it was marked as having “medium” relative fluorescent intensity; Low: If the cells looked smaller in the fluorescent channel as compared to the brightfield but still the whole cell was visible, it was marked as having “low” relative fluorescent intensity; Negligible: If only a few traces of a cell was visible in the fluorescent channel, it was marked as having “negligible” relative fluorescent intensity. The note with it: DiSC3(5) 3 μM, SYBR Green I 10×, SYTO 13 3 μM, FM4-64 15 μM. How it is done:
An overnight culture was prepared by inoculating a bacterial colony in approximately 5 ml of Urine and incubating the culture in an orbital shaker at 37° C.
The following media and materials were utilised: Cation-adjusted Mueller Hinton broth (MHB); Phosphate Buffered Saline (PBS); Membrane staining dye—FM4-64 (1.5 mM); Live cell staining dye—DiSC3(5) (1 mM); DNA staining dye—SYBR Green (1000×); DNA staining dye—SYTO 13 (0.5 mM); Ultrapure Agarose; Parafilm; Glass slides and coverslips; Scalpel; and EVOS M7000 fluorescent microscope.
A pre-cut parafilm or a coverslip was used as a guide and 22 mm×22 mm squares cut from parafilm. A square was cut out of the centre of the parafilm (approximately 10 mm×10 mm). The centre of the cut-out was discarded. Two parafilm gaskets were placed onto a cleaned glass slide. The glass slide was then placed on a dry bath set to 56° C. so that the parafilm adhered to the glass slide. The glass slide was then kept on the dry bath. Using a microwave, ultrapure agarose was dissolved in PBS at a concentration of 1.2%. The agarose solution was kept on a dry bath set at 56° C. 60 μl of the agarose solution was pipetted in the centre of the parafilm gaskets. A coverslip was then placed over the gaskets without applying pressure on the coverslip. The slide was then placed on a cool surface and left to solidify for 1-2 minutes. The coverslips were then gently lifted off the agarose pads.
In a first Eppendorf, 15 μl of FM4-64 and 6 μl of SYTO 13 was added and in a second Eppendorf 10 μl of SYBR Green and 3 μl of DiSC3(5) was added. Depending on the bacterial growth in urine, an appropriate concentration of the bacterial culture was placed in the two Eppendorfs (final bacterial concentration 10^6 CFU/ml). MHB was added so as to achieve a final volume of 1 ml. Final concentrations of the dyes in the sample was as follows: DiSC3(5): 3 μM; SYBR Green I: 10× (originally supplied as 10,000×); SYTO 13: 3 μM; and FM4-64: 15 μM
4 μl of the contents of each Eppendorf were deposited on one agarose pad and the cells distributed across the agar surface by tilting the slide. The slide was left to dry for approximately 1 minute. A coverslip was then placed on top of the agarose pad. The slide was placed inside the microscope and incubated at 37° C. for 10 minutes. Using different light filters for each dye, an image of each pad at 40× magnification on an EVOS M7000 fluorescent microscope was captured. Eight images for each agarose pad was recorded (i.e. 8 each for brightfield and 2 fluorescent channels). For each agarose pad, 24 images were recorded. This corresponded to 48 images in total for each bacterial strain (2 agarose pads per strain). Table A below was used to take the images using the correct fluorescent channel and intensity (for imagining on any other instrument, the LED intensity will need to be normalised against the EVOS M7000).
To qualitatively calculate the relative fluorescent intensities, cell size was compared between brightfield and the fluorescent channel for a given fluorescent dye. If the cells are very fluorescent, they will appear bigger in the fluorescent channel as compared to the bright field. For our qualitative measurements, if the cells looked bigger in the fluorescent channel, it was marked as having “high” relative fluorescent intensity. If the cells looked twice as big in the fluorescent channel, it was marked as having “very high” relative fluorescent intensity. If the cells looked almost the same size in the fluorescent channel and the bright field, it was marked as having “medium” relative fluorescent intensity. If the cells looked smaller in the fluorescent channel as compared to the brightfield but still the whole cell was visible, it was marked as having “low” relative fluorescent intensity. If only a few traces of a cell was visible in the fluorescent channel, it was marked as having “negligible” relative fluorescent intensity.

The mark [3] stands for this setting: Table 1, 3 μM DiSC3(5), 3 μM SYTO 13/9, 10× SYBR Green I, 37° C. for 10 minutes, background subtracted.
Where [4] appears, read: Table 3, DiSC3(5) 3 uM, SYBR Green 10x, SYTO 13/9 3 uM, FM 4-64 15 uM.
Setting [5] is: Table 7 commercial strain Proteus mirabilis NCTC 10975.
Setting [6] is: Table 7 commercial strain Proteus mirabilis NCTC 11938.
The mark [7] stands for this setting: Table 8 sample Proteus mirabilis (021).
The mark [8] stands for this setting: Table 8 sample Proteus mirabilis (022).
Setting [9] is: Table 8 sample Proteus mirabilis (023).

In the case of `CCCN1C(=CC=CC=Cc2sc3ccccc3[n+]2CCC)Sc2ccccc21.[I-]` [DiSC3(5), 3,3′-Dipropylthiadicarbocyanine Iodide], the “fluorescent signal intensity value, Average” value came to 62.66 with E. Coli SEC 31 (setting [3]); 62.66 in the test with E. Coli SEC 31 (setting [4]); 0.00 in the test on P. Aeruginosa NCTC 10332 (setting [3]); 0.00 in the test with P. Aeruginosa NCTC 10332 (setting [4]); 88.50 with P. Mirabilis NCTC 11938 (setting [3]); 88.50 with P. Mirabilis NCTC 11938 (setting [4]). For the same compound, the “fluorescent signal intensity value, Average” value is 184.80 in the test with S. Aureus NCTC 8532 (setting [3]); 184.80 in the test on S. Aureus NCTC 8532 (setting [4]); 142.28 in test [1] (setting [3]); 142.28 in test [1] (setting [4]); 16.70 in test [2] (setting [3]); 16.70 in test [2] (setting [4]). Besides, the “Percentage of cells stained” value with Proteus mirabilis (setting [5]), with Proteus mirabilis (setting [6]), with Proteus mirabilis (setting [7]), in the test on Proteus mirabilis (setting [8]) and in the test on Proteus mirabilis (setting [9]) was “Almost all” in each case. Besides, the Relative fluorescent intensity entry in the test with Proteus mirabilis (setting [5]) is “Medium”; in the test on Proteus mirabilis (setting [6]), “Low”; in the test on Proteus mirabilis (setting [7]), “Low”; with Proteus mirabilis (setting [8]) it was “Medium”; in the test on Proteus mirabilis (setting [9]), “Medium”.

For the compound `CCN(CC)c1ccc(C=CC=CC=Cc2cc[n+](CCC[N+](CC)(CC)CC)cc2)cc1.[Br-].[Br-]` [FM 4-64, N-(3-Triethylammoniumpropyl)-4-(6-(4-(Diethylamino) Phenyl) Hexatrienyl) Pyridinium Dibromide], the “fluorescent signal intensity value, Average” value amounted to 56.50 with E. Coli SEC 31 (setting [4]); 10.00 with P. Aeruginosa NCTC 10332 (setting [4]); 0.00 in the test with P. Mirabilis NCTC 11938 (setting [4]); 89.00 in the test with S. Aureus NCTC 8532 (setting [4]); 25.00 in test [1] (setting [4]); 30.00 in test [2] (setting [4]). Also, the “Percentage of cells stained” value in the test with Proteus mirabilis (setting [5]), in the test with Proteus mirabilis (setting [6]), with Proteus mirabilis (setting [7]), in the test with Proteus mirabilis (setting [8]) and in the test with Proteus mirabilis (setting [9]) was “Few” each time. Moreover, the Relative fluorescent intensity entry in the test on Proteus mirabilis (setting [5]), with Proteus mirabilis (setting [6]), with Proteus mirabilis (setting [7]), in the test on Proteus mirabilis (setting [8]) and in the test with Proteus mirabilis (setting [9]) was “Negligible” throughout.

Consider `CCCN(CCCN(C)C)c1cc(/C=C2/Sc3ccccc3N2C)c2ccccc2[n+]1-c1ccccc1` [SYBR Green I, N′,N′-dimethyl-N-[4-[(E)-(3-methyl-1,3-benzothiazol-2-ylidene)methyl]-1-phenylquinolin-1-ium-2-yl]-N-propylpropane-1,3-diamine], for which the “fluorescent signal intensity value, Average” value came to 104.53 with E. Coli SEC 31 (setting [3]); 104.53 in the test with E. Coli SEC 31 (setting [4]); 123.67 in the test with P. Aeruginosa NCTC 10332 (setting [3]); 123.67 with P. Aeruginosa NCTC 10332 (setting [4]); 109.85 with P. Mirabilis NCTC 11938 (setting [3]); 109.85 with P. Mirabilis NCTC 11938 (setting [4]). For the same compound, the “fluorescent signal intensity value, Average” value came out at 196.52 with S. Aureus NCTC 8532 (setting [3]); 196.52 with S. Aureus NCTC 8532 (setting [4]); 162.27 in test [1] (setting [3]); 162.27 in test [1] (setting [4]); 21.87 in test [2] (setting [3]); 21.87 in test [2] (setting [4]). In addition, the “Percentage of cells stained” value with Proteus mirabilis (setting [5]), in the test on Proteus mirabilis (setting [6]), in the test with Proteus mirabilis (setting [7]), in the test with Proteus mirabilis (setting [8]) and with Proteus mirabilis (setting [9]) was “Half” throughout. The Relative fluorescent intensity entry in the test on Proteus mirabilis (setting [5]), in the test with Proteus mirabilis (setting [6]), with Proteus mirabilis (setting [7]), in the test on Proteus mirabilis (setting [8]) and in the test on Proteus mirabilis (setting [9]) was “Low” in each case.
